# Data as given in the supplement of paper PMC10307832.
# How the values were obtained:
# Assay in all cases: relative viability (nuclei count vs DMSO), 5 days (fraction); higher = more cells survive
# [1] = compound: O=C(O)c1ccc2c(c1)nc(Nc1cccc(Cl)c1)c1ccncc12 [Silmitasertib] + Cc1nc(Nc2ncc(C(=O)Nc3c(C)cccc3Cl)s2)cc(N2CCN(CCO)CC2)n1 [Dasatinib] (partner 0.075 µM)
# Method in brief: (§1)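 Medians of duplicate plates are given as relative viability. That measure is the nuclei count in treated wells divided by the count in vehicle wells. Counts were taken on 4× images of lung cancer cell lines in 1536-well plates, 5 days after pin-tool dosing the day after seeding with one drug alone or a fixed anchor-drug dose plus five library-drug doses (not always all listed) in √10 steps.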
# [2] = compound: O=C(O)c1ccc2c(c1)nc(Nc1cccc(Cl)c1)c1ccncc12 [Silmitasertib] + COc1cc2c(Oc3ccc(NC(=O)C4(C(=O)Nc5ccc(F)cc5)CC4)cc3F)ccnc2cc1OCCCN1CCOCC1 [Foretinib] (partner 0.25 µM)
# Method in brief: as §1
# [3] = compound: O=C(O)c1ccc2c(c1)nc(Nc1cccc(Cl)c1)c1ccncc12 [Silmitasertib] + CCNC(=O)c1noc(-c2cc(C(C)C)c(O)cc2O)c1-c1ccc(CN2CCOCC2)cc1 [Luminespib] (partner 0.01 µM)
# Method in brief: as §1
# [4] = compound: O=C(O)c1ccc2c(c1)nc(Nc1cccc(Cl)c1)c1ccncc12 [Silmitasertib] + Cc1cc(Nc2cc(N3CCN(C)CC3)nc(Sc3ccc(NC(=O)C4CC4)cc3)n2)n[nH]1 [Tozasertib] (partner 0.1 µM)
# Method in brief: as §1
# [5] = compound: O=C(O)c1ccc2c(c1)nc(Nc1cccc(Cl)c1)c1ccncc12 [Silmitasertib] + COc1cccc2cc(-c3nc([C@H]4CC[C@H](C(=O)O)CC4)n4ncnc(N)c34)[nH]c12 [OSI-027] (partner 0.5 µM)
# Method in brief: as §1
# [6] = compound: O=C(O)c1ccc2c(c1)nc(Nc1cccc(Cl)c1)c1ccncc12 [Silmitasertib] + N=C(N)NC(=N)NCCc1ccccc1 [Phenformin] (partner 250 µM)
# Method in brief: as §1
# [7] = compound: O=C(O)c1ccc2c(c1)nc(Nc1cccc(Cl)c1)c1ccncc12 [Silmitasertib]
# Method in brief: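 A plate was accepted only when its control CV was below 25% and the cells had doubled at least once. Viability is defined from nuclear counts as treated wells divided by vehicle wells, with the median taken across plates. That median covers lung cancer cell lines grown in 1536-well plates, dosed by pinning at five √10-spaced library-drug concentrations, and counted in MetaXpress from 4× Hoechst images after 5 days.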
# [8] = compound: O=C(O)c1ccc2c(c1)nc(Nc1cccc(Cl)c1)c1ccncc12 [Silmitasertib] + Nc1nc2[nH]cc(CCc3ccc(C(=O)N[C@@H](CCC(=O)O)C(=O)O)cc3)c2c(=O)[nH]1 [Pemetrexed] (partner 0.2 µM)
# Method in brief: as §1
# [9] = compound: O=C(O)c1ccc2c(c1)nc(Nc1cccc(Cl)c1)c1ccncc12 [Silmitasertib] + CC(=O)Nc1cccc(-n2c(=O)n(C3CC3)c(=O)c3c(Nc4ccc(I)cc4F)n(C)c(=O)c(C)c32)c1 [Trametinib] (partner 0.02 µM)
# Method in brief: as §1
# [10] = compound: O=C(O)c1ccc2c(c1)nc(Nc1cccc(Cl)c1)c1ccncc12 [Silmitasertib] + O=C(CCCCCCC(=O)Nc1ccccc1)NO [Vorinostat] (partner 1 µM)
# Method in brief: as §1
# [11] = compound: O=C(O)c1ccc2c(c1)nc(Nc1cccc(Cl)c1)c1ccncc12 [Silmitasertib] + NC(=O)Nc1cc(-c2cccc(F)c2)sc1C(=O)N[C@H]1CCCNC1 [AZD7762] (partner 0.2 µM)
# Method in brief: as §1
# [12] = compound: O=C(O)c1ccc2c(c1)nc(Nc1cccc(Cl)c1)c1ccncc12 [Silmitasertib] + Nc1ncn([C@H]2C[C@H](O)[C@@H](CO)O2)c(=O)n1 [Decitabine] (partner 2 µM)
# Method in brief: as §1
# [13] = compound: O=C(O)c1ccc2c(c1)nc(Nc1cccc(Cl)c1)c1ccncc12 [Silmitasertib] + CC(=O)c1c(C)c2cnc(Nc3ccc(N4CCNCC4)cn3)nc2n(C2CCCC2)c1=O [Palbociclib] (partner 0.5 µM)
# Method in brief: as §1
# [14] = compound: O=C(O)c1ccc2c(c1)nc(Nc1cccc(Cl)c1)c1ccncc12 [Silmitasertib] + O=C(c1cc(Cc2n[nH]c(=O)c3ccccc23)ccc1F)N1CCN(C(=O)C2CC2)CC1 [Olaparib] (partner 8 µM)
# Method in brief: as §1
cell line,measurement,setting,value
NCI-H1623,relative viability,[1]; first compound 0.04 µM,0.576
same,relative viability,[1]; first compound 0.4 µM,0.456
same,relative viability,[1]; first compound 1.265 µM,0.297
same,relative viability,[1]; first compound 4 µM,0.361
same,relative viability,[2]; first compound 0.04 µM,0.934
same,relative viability,[2]; first compound 0.4 µM,0.572
same,relative viability,[2]; first compound 1.265 µM,0.49
same,relative viability,[2]; first compound 4 µM,0.536
same,relative viability,[3]; first compound 0.04 µM,0.46
same,relative viability,[3]; first compound 0.4 µM,0.4
same,relative viability,[3]; first compound 1.265 µM,0.355
same,relative viability,[3]; first compound 4 µM,0.343
same,relative viability,[4]; first compound 0.04 µM,0.422
same,relative viability,[4]; first compound 0.4 µM,0.392
same,relative viability,[4]; first compound 1.265 µM,0.36
same,relative viability,[4]; first compound 4 µM,0.371
same,relative viability,[5]; first compound 0.04 µM,0.347
same,relative viability,[5]; first compound 0.4 µM,0.385
same,relative viability,[5]; first compound 1.265 µM,0.368
same,relative viability,[5]; first compound 4 µM,0.357
same,relative viability,[6]; first compound 0.04 µM,0.563
same,relative viability,[6]; first compound 0.4 µM,0.498
same,relative viability,[6]; first compound 1.265 µM,0.446
same,relative viability,[6]; first compound 4 µM,0.382
same,relative viability,[7]; 0.04 µM,1.03
same,relative viability,[7]; 0.4 µM,0.715
same,relative viability,[7]; 1.265 µM,0.689
same,relative viability,[7]; 4 µM,0.693
NCI-H1648,relative viability,[8]; first compound 0.04 µM,0.689
same,relative viability,[8]; first compound 0.4 µM,0.699
same,relative viability,[8]; first compound 1.265 µM,0.863
same,relative viability,[8]; first compound 4 µM,0.679
same,relative viability,[9]; first compound 0.04 µM,0.634
same,relative viability,[9]; first compound 0.4 µM,0.366
same,relative viability,[9]; first compound 1.265 µM,0.474
same,relative viability,[9]; first compound 4 µM,0.527
same,relative viability,[10]; first compound 0.04 µM,0.435
same,relative viability,[10]; first compound 0.4 µM,0.517
same,relative viability,[10]; first compound 1.265 µM,0.271
same,relative viability,[10]; first compound 4 µM,0.574
same,relative viability,[11]; first compound 0.04 µM,0.709
same,relative viability,[11]; first compound 0.4 µM,0.624
same,relative viability,[11]; first compound 1.265 µM,0.739
same,relative viability,[11]; first compound 4 µM,0.423
same,relative viability,[4]; first compound 0.04 µM,0.61
same,relative viability,[4]; first compound 1.265 µM,0.283
same,relative viability,[4]; first compound 4 µM,0.363
same,relative viability,[12]; first compound 0.04 µM,0.49
same,relative viability,[12]; first compound 0.4 µM,0.55
same,relative viability,[12]; first compound 1.265 µM,0.494
same,relative viability,[12]; first compound 4 µM,0.559
same,relative viability,[5]; first compound 0.04 µM,0.255
same,relative viability,[5]; first compound 1.265 µM,0.267
same,relative viability,[5]; first compound 4 µM,0.245
same,relative viability,[13]; first compound 0.04 µM,0.256
same,relative viability,[13]; first compound 0.4 µM,0.229
same,relative viability,[13]; first compound 1.265 µM,0.301
same,relative viability,[13]; first compound 4 µM,0.327
same,relative viability,[14]; first compound 0.04 µM,0.84
same,relative viability,[14]; first compound 0.4 µM,0.525
same,relative viability,[14]; first compound 1.265 µM,1.07
same,relative viability,[14]; first compound 4 µM,0.876
same,relative viability,[7]; 0.04 µM,1.26
same,relative viability,[7]; 0.4 µM,0.63
same,relative viability,[7]; 1.265 µM,0.889
same,relative viability,[7]; 4 µM,0.684
